Results: patent US6639107B1, “Cyclopentyl sulfonamide derivatives” (Eli Lilly and Company, priority 1999, dated 2003)

- melting point: 128 to 130 °C
SMILES: CC(C)S(=O)(=O)N[C@H]1CCC[C@@H]1c1ccc(Br)cc1 (racemic) [Example 48, (+,−) Trans Propane-2-sulfonic Acid [2-(4-bromo-phenyl)-cyclopentyl]-amide]
